Reference: ChEMBL document CHEMBL6083193, “Advancing drug discovery: Thiadiazole derivatives as multifaceted agents in medicinal chemistry and pharmacology” (Bioorg Med Chem, 2024)
In brackets after ≈: the same amount, converted by molar mass.

Assays:
Toxoplasma gondii = assay: Antiparasitic activity against Toxoplasma gondii RH infected in human HFF cells; type: functional, organism-based
Alpha glucosidase = Alpha glucosidase (Homo sapiens, UniProt O43451+P10253+P14410+Q2M2H8); assay: Inhibition of Alpha-glucosidase (unknown origin); type: protein assay
[1] = Inhibition of Alpha-amylase (unknown origin); design: species or system Homo sapiens
A2780 [2] = assay: Anticancer activity against human A2780 cells by MTT assay; type: functional, cell-based
A549 [3] = assay: Cytotoxicity against human A549 cells assessed as reduction in cell viability by MTT assay; type: functional, cell-based
COLO 205 [4] = assay: Anticancer activity against human COLO 205 cells by MTT assay; type: functional, cell-based
A549 [5] = assay: Anticancer activity against human A549 cells by MTT assay; type: functional, cell-based
MCF7 [6] = assay: Anticancer activity against human MCF7 cells by MTT assay; type: functional, cell-based
A2780 [7] = assay: Cytotoxicity against human A2780 cells assessed as reduction in cell viability by MTT assay; type: functional, cell-based
COLO 205 [8] = assay: Cytotoxicity against human COLO 205 cells assessed as reduction in cell viability by MTT assay; type: functional, cell-based
MCF7 [9] = assay: Cytotoxicity against human MCF7 cells assessed as reduction in cell viability by MTT assay; type: functional, cell-based
[10] = Antioxidant activity assessed as DPPH radical scavenging activity measured for 30 mins by spectrophotometric analysis; type: functional
A549 [11] = assay: Cytotoxicity against human A549 cells assessed as reduction in cell growth; type: functional, cell-based
Mus musculus = assay: Antiinflammatory activity against carrageenan-induced paw edema in Swiss mouse assessed as reduction in paw edema at 15 mg/kg, po relative to control; type: functional; design: scale not given: the % may be the effect or the level left
[12] = Inhibition of alpha amylase (unknown origin) using starch as substrate pre-incubated for 30 mins followed by substrate addition and measured after 30 mins by absorbance based analysis; design: species or system Homo sapiens

Cc1[nH]cnc1-c1nnc(Nc2ccc(Cl)cc2)s1
IC50 (Toxoplasma gondii): 4.7 µg/mL (≈ 16.1 µM)

Cc1[nH]cnc1-c1nnc(Nc2ccc(F)cc2)s1
IC50 (Toxoplasma gondii): 4.7 µg/mL (≈ 17.1 µM)

Cc1cccc(CN2C(=O)/C(=N\Nc3nncs3)c3ccccc32)c1
IC50 (Alpha glucosidase): < 500000 nM | IC50 [1]: 2590 nM

Cc1nc[nH]c1-c1nnc(Nc2ccccc2Cl)s1
IC50 (Toxoplasma gondii): 4.7 µg/mL (≈ 16.1 µM)

O=[N+]([O-])c1ccc(NC(=S)Nc2nsc(Nc3cccc([N+](=O)[O-])c3)n2)cc1
IC50 (Alpha glucosidase): 2200 nM | IC50 [1]: 1300 nM

O=[N+]([O-])c1ccccc1NC(=S)Nc1nsc(Nc2ccc(Cl)c(Cl)c2)n1
IC50 (Alpha glucosidase): 2200 nM | IC50 [1]: 1300 nM

COc1ccc(NC(=O)c2ccc(-c3nsc(-c4csc(-c5ccncc5)n4)n3)cc2)cc1
IC50 (A2780 [2]): 110 nM | IC50 (A549 [3]): 110 nM | IC50 (COLO 205 [4]): 110 nM | IC50 (A549 [5]): 110 nM | IC50 (MCF7 [6]): 110 nM | IC50 (A2780 [7]): 140 nM | IC50 (COLO 205 [8]): 120 nM | IC50 (MCF7 [9]): 340 nM

S=C(Nc1ccc(Cl)c(Cl)c1)Nc1nsc(Nc2ccc(Cl)c(Cl)c2)n1
IC50 (Alpha glucosidase): 2200 nM | IC50 [1]: 1300 nM

Fc1ccccc1NC(=S)Nc1nsc(Nc2ccc(Cl)c(Cl)c2)n1
IC50 (Alpha glucosidase): 2200 nM | IC50 [1]: 1300 nM

N#C/C(=N\Nc1ccccc1)C(=O)Nc1nncs1
IC50 [10]: 37.25 µg/mL (≈ 137 µM)

CCNc1nnc(SCC(=O)N2N=C(c3ccccc3)CC2c2ccc([N+](=O)[O-])cc2)s1 (configuration not stated)
IC50 (A549 [11]): 10000 nM

Cc1nc[nH]c1-c1nnc(Nc2ccc(I)cc2)s1
IC50 (Toxoplasma gondii): 4.7 µg/mL (≈ 12.3 µM)

Cc1nc[nH]c1-c1nnc(Nc2cccc(Br)c2)s1
IC50 (Toxoplasma gondii): 4.7 µg/mL (≈ 14 µM)

Cc1ccc(NC(=S)Nc2nsc(Nc3ccc(Cl)cc3)n2)cc1
IC50 (Alpha glucosidase): 2200 nM | IC50 [1]: 1300 nM

CCc1ccc(C2SCC(=O)N2c2nnc(-c3ccccc3)s2)cc1 (configuration not stated)
IC50 (Alpha glucosidase): < 500000 nM | IC50 [1]: 3870 nM

COc1cc(NC(=O)c2ccc(-c3nsc(-c4csc(-c5ccncc5)n4)n3)cc2)cc(OC)c1OC
IC50 (A2780 [2]): 110 nM | IC50 (A549 [3]): 110 nM | IC50 (COLO 205 [4]): 110 nM | IC50 (A549 [5]): 110 nM | IC50 (MCF7 [6]): 110 nM | IC50 (A2780 [7]): 140 nM | IC50 (COLO 205 [8]): 120 nM | IC50 (MCF7 [9]): 340 nM

Cc1nc[nH]c1-c1nnc(Nc2ccccc2I)s1
IC50 (Toxoplasma gondii): 4.7 µg/mL (≈ 12.3 µM)

O=[N+]([O-])c1ccc(NC(=S)Nc2nsc(Nc3ccc(Cl)cc3)n2)cc1
IC50 (Alpha glucosidase): 2200 nM | IC50 [1]: 1300 nM

O=C1N/C(=N\c2nnc(C34CC5CC(CC(C5)C3)C4)s2)S/C1=C\c1cccc([N+](=O)[O-])c1
Activity (Mus musculus): 66.7%

O=[N+]([O-])c1cccc(NC(=S)Nc2nsc(Nc3cccc([N+](=O)[O-])c3)n2)c1
IC50 (Alpha glucosidase): 2200 nM | IC50 [1]: 1300 nM

O=C1N/C(=N\c2nnc(C34CC5CC(CC(C5)C3)C4)s2)S/C1=C\c1cccc(Cl)c1Cl
Activity (Mus musculus): 66.7%

O=[N+]([O-])c1cccc(NC(=S)Nc2nsc(Nc3ccc(F)cc3)n2)c1
IC50 (Alpha glucosidase): 2200 nM | IC50 [1]: 1300 nM

O=C(NC1=NN2C(=O)/C(=C/C3CCCO3)N=C2S1)c1cccs1 (configuration not stated)
IC50 [12]: 36100 nM

O=C(Nc1cc([N+](=O)[O-])cc([N+](=O)[O-])c1)c1ccc(-c2nsc(-c3csc(-c4ccncc4)n3)n2)cc1
IC50 (A2780 [2]): 110 nM | IC50 (COLO 205 [4]): 110 nM | IC50 (A549 [5]): 110 nM | IC50 (MCF7 [6]): 110 nM

Cc1ccc(NC(=O)c2ccc(-c3nsc(-c4csc(-c5ccncc5)n4)n3)cc2)cc1
IC50 (A2780 [2]): 110 nM | IC50 (A549 [3]): 110 nM | IC50 (COLO 205 [4]): 110 nM | IC50 (A549 [5]): 110 nM | IC50 (MCF7 [6]): 110 nM | IC50 (A2780 [7]): 140 nM | IC50 (COLO 205 [8]): 120 nM | IC50 (MCF7 [9]): 340 nM

CCCNc1nnc(SCC(=O)N2N=C(c3ccccc3)CC2c2ccc([N+](=O)[O-])cc2)s1 (configuration not stated)
IC50 (A549 [11]): 10000 nM

O=C1N/C(=N/c2nn(-c3ccccc3)nc2C(=O)Nc2nncs2)S/C1=C\c1ccc(Cl)cc1
IC50 [10]: 22.63 µg/mL (≈ 44.5 µM)

COc1ccc(Nc2nnc(SCC(=O)N3N=C(c4ccccc4)CC3c3ccc([N+](=O)[O-])cc3)s2)cc1 (configuration not stated)
IC50 (A549 [11]): 10000 nM

COc1ccccc1NC(=S)Nc1nsc(Nc2ccc(Cl)c(Cl)c2)n1
IC50 (Alpha glucosidase): 2200 nM | IC50 [1]: 1300 nM

O=C1N/C(=N\c2nnc(C34CC5CC(CC(C5)C3)C4)s2)S/C1=C\c1ccccc1
Activity (Mus musculus): 66.7%

Cc1nc[nH]c1-c1nnc(Nc2ccc(Br)cc2)s1
IC50 (Toxoplasma gondii): 4.7 µg/mL (≈ 14 µM)

COc1cc(NC(=O)c2ccc(-c3nsc(-c4csc(-c5ccncc5)n4)n3)cc2)cc(OC)c1
IC50 (A2780 [2]): 110 nM | IC50 (A549 [3]): 110 nM | IC50 (COLO 205 [4]): 110 nM | IC50 (A549 [5]): 110 nM | IC50 (MCF7 [6]): 110 nM | IC50 (A2780 [7]): 140 nM | IC50 (COLO 205 [8]): 120 nM | IC50 (MCF7 [9]): 340 nM

CN(C)c1ccc(/C=C2\S/C(=N/c3nnc(C45CC6CC(CC(C6)C4)C5)s3)NC2=O)cc1
Activity (Mus musculus): 66.7%

FC(F)(F)c1cccc(Nc2nc(NC(=S)Nc3ccc(Cl)cc3)ns2)c1
IC50 (Alpha glucosidase): 2200 nM | IC50 [1]: 1300 nM

COc1ccc(/C=C2\S/C(=N/c3nnc(C45CC6CC(CC(C6)C4)C5)s3)NC2=O)cc1
Activity (Mus musculus): 66.7%

Cc1cc(C)cc(NC(=O)c2ccc(-c3nsc(-c4csc(-c5ccncc5)n4)n3)cc2)c1
IC50 (A2780 [2]): 110 nM | IC50 (COLO 205 [4]): 110 nM | IC50 (A549 [5]): 110 nM | IC50 (MCF7 [6]): 110 nM
